The values that follow come from patent US12030929B2, “Fusobacterium nucleatum amyloid-like FadA for diagnosis and treatment of Fn-mediated pathogenesis” (The Trustees of Columbia University in the City of New York, priority 2021, dated 2024).

The test system of data set [1] is Fn 12230. The data set can be described thus: Effects of Congo Red on Fn viability (OD600 and CFU). In kind it is cell-based, Fusobacterium nucleatum. Particulars: incubation 48 or 72 hrs. How it is done:
FIG. 10A-10B. 10A. Schematic illustration of preparation of detergent-resistant bacterial pellets and its use as scaffold for biofilm growth. 10B. Effects of Congo Red on Fn viability. Fn 12230 was incubated in PBS (top row), 10 mg/ml Congo Red (10 CR), or 50 mg/ml Congo Red (50 CR) for 48 hrs (left panel) or 72 hrs (right panel), followed by measurement of OD600 (OD) and viable counts (CFU).

The subject of data set [2] is Fn 12230. The data set is described as follows: pH tolerance assay, wild-type Fn. The data set is classed as cell-based, Fusobacterium nucleatum. To be noted: stationary phase; pH 4.0; 50 μg/ml Congo Red; 1 or 2 hours.
Data set [3] concerns US1 (ΔfadA). The data set is described as follows: pH tolerance assay, fadA-deletion mutant. In kind it is cell-based, Fusobacterium nucleatum. To be noted: stationary phase; pH 4.0; 50 μg/ml Congo Red; 1 or 2 hours.
The test system of data set [4] is Fn binding to human CRC cells DLD1. The data set can be described thus: Cell culture attachment assay, DLD1. The data set is classed as cell-based. Particulars: bacteria washed twice with 1 mg/ml Congo Red, MOI 50:1.
The test system of data set [5] is HCT116 xenograft tumors. The data set is described as follows: CRC xenograft model. The data set is classed as in vivo. Particulars: Fn 12230 washed in 1 mg/ml Congo Red, injected into tumors; IHC one week later; nude mice. The procedure: FIG. 5A-5D. Amyloid-like FadA mediates colonization in CRC and promotes tumor growth in vivo. 5A. Analysis of Fn colonization in mouse xenograft tumors by IHC. An inoculum of 5×10^6 HCT116 cells was injected subcutaneously and bilaterally into the nude mice. Once the tumors became visible (after 3-4 days), approximately 5×10^6 CFU of Fn 12230 washed in PBS or 1 mg/ml Congo Red (CR) were injected into the tumors. The tumors were extracted one week later, and the formalin-fixed and embedded (FFPE) tissues were stained with mAb 7H7. Note the brown stains in tumor injected with PBS-washed tumor, but not in CR-washed tumor. 5B. Effects of secreted amyloid-like FadA on tumor growth. HCT116 cells were injected into the nude mice as described above, followed by injection of 5×10^6 CFU of Fn 12230 (Fn, n=7), lam (n=3) or US1 (ΔfadA, n=4). The tumor volumes were measured immediately before bacteria injection (Day 0, designated as 100%), and at 3 days after injection (Day 3). The horizontal lines represent averages of tumor volumes (left panel). The individual tumors are shown (right panel). **p<0.01, ***p<0.001 (t-test). 5C. […] The tumor volumes were measured on Day 0 and Day 5 as described above. […] The tumor volumes were measured described above. […]
CRC xenograft model. […] The tumor length and width were measured using calipers and tumor volumes were calculated using the following formula: Volume=(width)2×length/2. […]

As for `Nc1c(/N=N/c2ccc(-c3ccc(/N=N/c4cc(S(=O)(=O)O)c5ccccc5c4N)cc3)cc2)cc(S(=O)(=O)O)c2ccccc12` [Congo Red], in data set [1], the “viability of Fn” value is given as “without affecting the viability of Fn”. Also, the “viability of wild-type Fn in acidic environment” value in data set [2] is “drastically reduced viability of wild-type Fn to the similar levels as US1”. The “viability of US1 (ΔfadA) in acidic environment” value in data set [3] is on record as “without affecting US1 (ΔfadA)”. Moreover, in data set [4] (log phase), the “effect on Fn binding to DLD1” value is recorded as “little or no effect on binding”. Besides, in data set [4] (stationary phase), the “reduction of Fn binding to DLD1” value is reported as about 5 fold. Also, the “Fn colonization in xenograft tumors” value in data set [5] was “significantly inhibited Fn colonization in xenograft tumors”.
